Where two headings read alike, the source gives them in different places.
Assays:
[1] = test system: iCell endothelial cells (human iPSC-derived ECs); assay: High-content imaging cytotoxicity in iCell endothelial cells, 24 h; assay type: cell-based; conditions: Homo sapiens, Endothelial cell; for viability at 0.1 µM / activity at 0.1 µM: 0.10 µM
How it was run: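 Readouts were vehicle-normalised and fitted to a four-parameter logistic model. POD was set at one SD beyond 0.5% DMSO control means, and 100 µM was assigned when no response was seen. Cells were monolayers of iCell endothelial cells imaged after 24 h compound exposure using nuclear, mitochondrial and calcein dyes.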

[2] = test system: HUVECs; assay: Tube formation (tubulogenesis) assay in HUVECs, 18 h; assay type: cell-based, human; conditions: for minimal effective concentration / activity at 0.01 µM / activity at 0.1 µM / activity at 1 µM / activity at 10 µM / activity at 100 µM: Homo sapiens, HUVEC, 18 h; for activity at 1 µM: concentration 1.00 µM; for activity at 10 µM: concentration 10.00 µM
How it was run: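 HUVECs (passage 1–5) seeded on reduced-growth-factor basement membrane and exposed to compounds overnight at 37°C, 5% CO2, in 2× maintenance medium with 12.5 ng/mL VEGF; 0.5% DMSO vehicle. Calcein AM-stained tube networks imaged and analysed; vehicle-normalized readouts fit to four-parameter logistic, POD set at one SD of vehicle means.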

[3] = iPSC-EC, 0.00 µM = 100.00, read-out: endo.cyto.24hr
[4] = iPSC-EC, 0.00 µM = 100.00, read-out: endo.mito.24hr
[5] = iPSC-EC, 0.00 µM = 100.00, read-out: endo.mitoint.24hr
[6] = iPSC-EC, 0.00 µM = 100.00, read-out: endo.nma.24hr
[7] = iPSC-EC, 0.00 µM = 100.00, read-out: endo.tc.24hrs
[8] = HUVECs tube formation, 0.00 µM = 100.00, read-out: huvec.mtl.18hr
[9] = HUVECs tube formation, 0.00 µM = 100.00, read-out: huvec.tlps.18hr
[10] = HUVECs tube formation, 0.00 µM = 100.00, read-out: huvec.tta.18hr
[11] = HUVECs tube formation, 0.00 µM = 100.00, read-out: huvec.ttl.18hr

Clc1ccc(Cl)c(-c2c(Cl)ccc(Cl)c2Cl)c1Cl [(+)-PCB 136, 2,2′,3,3′,6,6′-hexachlorobiphenyl]
minimal effective concentration ([1]; endothelial cells (endo), nma, 24 hr, read-out: POD endo.nma.24hr): 100 µM
viability at 0.01 µM [1, 3]: 103%
activity at 0.01 µM [1, 4]: 103%
activity at 0.01 µM [1, 5]: 96.4%
activity at 0.01 µM [1, 6]: 102%
viability at 0.01 µM [1, 7]: 103%
viability at 0.1 µM [1, 3]: 103%
activity at 0.1 µM [1, 4]: 104%
activity at 0.1 µM [1, 5]: 95.5%
activity at 0.1 µM [1, 6]: 98.7%
viability at 0.1 µM [1, 7]: 103%
viability at 1 µM [1, 3]: 103%
activity at 1 µM [1, 4]: 103%
activity at 1 µM [1, 5]: 92.5%
activity at 1 µM [1, 6]: 98.5%
viability at 1 µM [1, 7]: 103%
viability at 10 µM [1, 3]: 101%
activity at 10 µM [1, 4]: 102%
activity at 10 µM [1, 5]: 92.2%
activity at 10 µM [1, 6]: 99.4%
viability at 10 µM [1, 7]: 101%
viability at 100 µM [1, 3]: 46.7%
activity at 100 µM [1, 4]: 41.6%
activity at 100 µM [1, 5]: 51.5%
activity at 100 µM [1, 6]: 104%
viability at 100 µM [1, 7]: 50.8%
minimal effective concentration ([1]; iPSC-EC, 100.00 = highest concentration tested, read-out: endo.nma.24hr POD): 100 µM
huvec.tta.18hr ([2]; HUVECs tube formation, concentration 0.01 µM, 0.00 µM = 100.00): 108.86
huvec.tlps.18hr ([2]; HUVECs tube formation, concentration 0.10 µM, 0.00 µM = 100.00): 71.77
huvec.tta.18hr ([2]; HUVECs tube formation, concentration 100.00 µM, 0.00 µM = 100.00): 92.04
minimal effective concentration ([2]; tube formation mtl, read-out: POD huvec.mtl.18hr): 13.4 µM
minimal effective concentration ([2]; tube formation tta, read-out: POD huvec.tta.18hr): 100 µM
minimal effective concentration ([2]; tube formation ttl, read-out: POD huvec.ttl.18hr): 100 µM
minimal effective concentration ([2]; HUVECs tube formation, MAX 100.00, read-out: huvec.mtl.18hr POD): 13.4 µM
minimal effective concentration ([2]; HUVECs tube formation, MAX 100.00, read-out: huvec.tta.18hr POD): 100 µM
minimal effective concentration ([2]; HUVECs tube formation, MAX 100.00, read-out: huvec.ttl.18hr POD): 100 µM
activity at 0.01 µM ([2]; HUVECs tube formation, concentration 0.01 µM, 0.00 µM = 100.00, read-out: huvec.mtl.18hr): 92.2%
activity at 0.01 µM ([2]; HUVECs tube formation, concentration 0.01 µM, 0.00 µM = 100.00, read-out: huvec.tlps.18hr): 82.7%
activity at 0.01 µM ([2]; HUVECs tube formation, concentration 0.01 µM, 0.00 µM = 100.00, read-out: huvec.ttl.18hr): 105%
activity at 0.1 µM ([2]; HUVECs tube formation, concentration 0.10 µM, 0.00 µM = 100.00, read-out: huvec.mtl.18hr): 93.1%
activity at 0.1 µM ([2]; HUVECs tube formation, concentration 0.10 µM, 0.00 µM = 100.00, read-out: huvec.tta.18hr): 107%
activity at 0.1 µM ([2]; HUVECs tube formation, concentration 0.10 µM, 0.00 µM = 100.00, read-out: huvec.ttl.18hr): 105%
activity at 1 µM [2, 8]: 96.3%
activity at 1 µM [2, 9]: 98.7%
activity at 1 µM [2, 10]: 102%
activity at 1 µM [2, 11]: 99.6%
activity at 10 µM [2, 8]: 92.5%
activity at 10 µM [2, 9]: 100%
activity at 10 µM [2, 10]: 112%
activity at 10 µM [2, 11]: 104%
activity at 100 µM ([2]; HUVECs tube formation, concentration 100.00 µM, 0.00 µM = 100.00, read-out: huvec.mtl.18hr): 64.5%
activity at 100 µM ([2]; HUVECs tube formation, concentration 100.00 µM, 0.00 µM = 100.00, read-out: huvec.tlps.18hr): 73.3%
activity at 100 µM ([2]; HUVECs tube formation, concentration 100.00 µM, 0.00 µM = 100.00, read-out: huvec.ttl.18hr): 83.9%
